PubChem BioAssay (NCI)
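GI50 is the concentration that inhibits growth by half. The concentration for full growth arrest is given as TGI.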

Assays:
Assay in all cases: DTP human tumour cell line panel, 384-well format
SK-MEL-5 melanoma = test system: SK-MEL-5 melanoma
UACC-62 melanoma = test system: UACC-62 melanoma
MCF7 breast = test system: MCF7 breast
MDA-MB-468 breast = test system: MDA-MB-468 breast
OVCAR-4 ovarian = test system: OVCAR-4 ovarian
NCI-H226 lung = test system: NCI-H226 lung
SN12C renal = test system: SN12C renal
NCI-H460 NSCLC = test system: NCI-H460 NSCLC
HCC-2998 colon = test system: HCC-2998 colon
SK-MEL-28 melanoma = test system: SK-MEL-28 melanoma
UACC-257 melanoma = test system: UACC-257 melanoma
HCT-116 colon = test system: HCT-116 colon
EKVX NSCLC = test system: EKVX NSCLC
BT-549 breast = test system: BT-549 breast
MDA-MB-435 melanoma = test system: MDA-MB-435 melanoma
A549 NSCLC = test system: A549 NSCLC
HOP-92 NSCLC = test system: HOP-92 NSCLC
HS 578T breast = test system: HS 578T breast
HOP-62 NSCLC = test system: HOP-62 NSCLC
IGROV1 ovarian = test system: IGROV1 ovarian
NCI-H23 lung = test system: NCI-H23 lung
SK-OV-3 ovarian = test system: SK-OV-3 ovarian
MDA-MB-231 breast = test system: MDA-MB-231 breast
SF-539 CNS = test system: SF-539 CNS
UO-31 renal = test system: UO-31 renal
COLO 205 colon = test system: COLO 205 colon
SNB-75 CNS = test system: SNB-75 CNS
NCI-H522 lung = test system: NCI-H522 lung
SK-MEL-2 melanoma = test system: SK-MEL-2 melanoma
HCT-15 colon = test system: HCT-15 colon
DU-145 prostate = test system: DU-145 prostate
RXF 393 renal = test system: RXF 393 renal
U251 glioblastoma = test system: U251 glioblastoma
SF-295 CNS = test system: SF-295 CNS
HL-60(TB) leukemia = test system: HL-60(TB) leukemia
786-0 renal = test system: 786-0 renal
M14 melanoma = test system: M14 melanoma
RPMI-8226 leukemia = test system: RPMI-8226 leukemia
A498 renal = test system: A498 renal
SNB-19 CNS = test system: SNB-19 CNS
MOLT-4 leukemia = test system: MOLT-4 leukemia
OVCAR-3 ovarian = test system: OVCAR-3 ovarian
NCI-H322M lung = test system: NCI-H322M lung
CCRF-CEM leukemia = test system: CCRF-CEM leukemia
ACHN renal = test system: ACHN renal
SF-268 CNS = test system: SF-268 CNS
SR leukemia = test system: SR leukemia
TK-10 renal = test system: TK-10 renal
KM12 colon = test system: KM12 colon
SW-620 colon = test system: SW-620 colon
MALME-3M melanoma = test system: MALME-3M melanoma
OVCAR-5 ovarian = test system: OVCAR-5 ovarian
PC-3 prostate = test system: PC-3 prostate
CAKI-1 renal = test system: CAKI-1 renal
K-562 leukemia = test system: K-562 leukemia
HT29 colon = test system: HT29 colon
LOX IMVI melanoma = test system: LOX IMVI melanoma

## Cc1[nH]c2ccc(F)cc2c1-c1nc2c3cccnc3c3ncccc3c2[nH]1
SK-MEL-5 melanoma
  GI50: 25.2 nM
  TGI: 119 nM
UACC-62 melanoma
  GI50: 204 nM
  TGI: 587 nM
MCF7 breast
  GI50: 298 nM
  TGI: 40300 nM
MDA-MB-468 breast
  GI50: 74.5 nM
  TGI: 214 nM
OVCAR-4 ovarian
  GI50: 96 nM
  TGI: > 100000 nM
NCI-H226 lung
  GI50: 147 nM
  TGI: 683 nM
SN12C renal
  GI50: 161 nM
  TGI: 397 nM
NCI-H460 NSCLC
  GI50: 367 nM
  TGI: 4260 nM
HCC-2998 colon
  GI50: 24.2 nM
  TGI: > 100000 nM
SK-MEL-28 melanoma
  GI50: 272 nM
  TGI: > 100000 nM
UACC-257 melanoma
  GI50: 227 nM
  TGI: 603 nM
HCT-116 colon
  GI50: 52.1 nM
  TGI: 654 nM
EKVX NSCLC
  GI50: 122 nM
  TGI: 14200 nM
BT-549 breast
  GI50: 41.8 nM
  TGI: 254 nM
MDA-MB-435 melanoma
  GI50: 306 nM
  TGI: > 100000 nM
A549 NSCLC
  GI50: 421 nM
  TGI: > 100000 nM
HOP-92 NSCLC
  GI50: 194 nM
  TGI: 742 nM
HS 578T breast
  GI50: 318 nM
  TGI: 12100 nM
HOP-62 NSCLC
  GI50: 129 nM
  TGI: 345 nM
IGROV1 ovarian
  GI50: 182 nM
  TGI: 32900 nM
NCI-H23 lung
  GI50: 233 nM
  TGI: 704 nM
SK-OV-3 ovarian
  GI50: 44.9 nM
  TGI: 9450 nM
MDA-MB-231 breast
  GI50: 228 nM
  TGI: 2930 nM
SF-539 CNS
  GI50: 125 nM
  TGI: 404 nM
UO-31 renal
  GI50: 319 nM
  TGI: 7710 nM
COLO 205 colon
  GI50: 35.3 nM
  TGI: 141 nM
SNB-75 CNS
  GI50: 230 nM
  TGI: 759 nM
NCI-H522 lung
  GI50: 244 nM
  TGI: 852 nM
SK-MEL-2 melanoma
  GI50: 353 nM
  TGI: 934 nM
HCT-15 colon
  GI50: 245 nM
  TGI: 29900 nM
DU-145 prostate
  GI50: 60.7 nM
  TGI: 413 nM
RXF 393 renal
  GI50: 31.4 nM
  TGI: 192 nM
U251 glioblastoma
  GI50: 63.7 nM
  TGI: 710 nM
SF-295 CNS
  GI50: 303 nM
  TGI: 12000 nM
HL-60(TB) leukemia
  GI50: 45.3 nM
  TGI: 176 nM
786-0 renal
  GI50: 176 nM
  TGI: 586 nM
M14 melanoma
  GI50: 192 nM
  TGI: 472 nM
RPMI-8226 leukemia
  GI50: 3110 nM
  TGI: 15000 nM
A498 renal
  GI50: 205 nM
  TGI: > 100000 nM
SNB-19 CNS
  GI50: 241 nM
  TGI: 883 nM
MOLT-4 leukemia
  GI50: 37.4 nM
  TGI: 151 nM
OVCAR-3 ovarian
  GI50: 27.8 nM
  TGI: 22200 nM
NCI-H322M lung
  GI50: 125 nM
  TGI: 28500 nM
CCRF-CEM leukemia
  GI50: 37.6 nM
  TGI: 136 nM
ACHN renal
  GI50: 241 nM
  TGI: 686 nM
SF-268 CNS
  GI50: 25 nM
  TGI: 83.1 nM
SR leukemia
  GI50: 19.2 nM
  TGI: 33.9 nM
TK-10 renal
  GI50: 450 nM
  TGI: 18800 nM
KM12 colon
  GI50: 266 nM
  TGI: > 100000 nM
SW-620 colon
  GI50: 336 nM
  TGI: > 100000 nM
MALME-3M melanoma
  GI50: 195 nM
  TGI: 743 nM
OVCAR-5 ovarian
  GI50: 298 nM
  TGI: 17600 nM
PC-3 prostate
  GI50: 69.9 nM
  TGI: > 100000 nM
CAKI-1 renal
  GI50: 218 nM
  TGI: 572 nM
K-562 leukemia
  GI50: 217 nM
  TGI: > 100000 nM
HT29 colon
  GI50: 338 nM
  TGI: > 100000 nM
LOX IMVI melanoma
  GI50: 62.5 nM
  TGI: 231 nM
